Source: US20260374739A1, “SMALL MOLECULAR WEIGHT CHEMICAL COMPOUND TO ANTAGONIZE EPH-EPHRIN TETRAMERIZATION AND INHIBIT BIDIRECTIONAL SIGNALING” (THE BOARD OF REGENTS OF THE UNIVERSITY OF TEXAS SYSTEM, priority 2022, published 2026)
Several values for one entry are separate records, joined by “and”; a condition that tells them apart may be missing. Equal entries are not always repeated. Entries after “also recorded” stand apart in the source; their conditions may differ. Marks after values point to notes of the source that are not given here.

Key:
EphrinB2-EphB4 = biological target: T1, EphrinB2-EphB4 (Homo sapiens, UniProt P54760); test: Octet 80 sec association/500 sec dissociation, immobilized human EphrinB2-Fc binding to soluble human EphB4-His; conditions: immobilized human EphrinB2, 25 nM soluble human EphB4; for EphB4 Inhibition Percent, Inhibition of Association-Dissociation: at 3.2 μM and 580 seconds; for EphB4 Inhibition Percent, Inhibition of Association ONLY: at 3.2 μM and 80 seconds
T1 construct: soluble human EphB1-His, EphB2-His, and EphB4-His ectodomains; commercially available human EphrinB1-Fc (EB1), EphrinB2-Fc (EB2), and EphrinB3-Fc (EB3) ectodomain proteins; purchased
T1 sequence (P54760 16-539 limits assumed): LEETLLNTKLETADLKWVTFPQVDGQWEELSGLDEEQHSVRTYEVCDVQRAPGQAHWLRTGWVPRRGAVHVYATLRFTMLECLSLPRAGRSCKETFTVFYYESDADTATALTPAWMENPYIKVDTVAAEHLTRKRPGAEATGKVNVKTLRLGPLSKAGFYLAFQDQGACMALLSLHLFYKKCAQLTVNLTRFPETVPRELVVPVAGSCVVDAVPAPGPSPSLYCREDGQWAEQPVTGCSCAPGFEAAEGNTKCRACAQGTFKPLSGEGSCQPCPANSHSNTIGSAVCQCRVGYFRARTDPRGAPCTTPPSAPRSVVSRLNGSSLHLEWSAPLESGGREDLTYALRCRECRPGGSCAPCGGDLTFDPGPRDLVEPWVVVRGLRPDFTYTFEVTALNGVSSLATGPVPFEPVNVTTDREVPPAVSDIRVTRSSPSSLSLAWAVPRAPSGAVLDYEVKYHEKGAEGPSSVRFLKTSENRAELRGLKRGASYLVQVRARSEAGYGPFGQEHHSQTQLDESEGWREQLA
Procedure, shortened: (§1)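 EphrinB2-Fc captured on AHC biosensors, then soluble His-tagged EphB ectodomain (25 nM for % inhibition runs) associated 80 s and dissociated 500 s in PBS, 0.05% Tween-20, 1% DMSO ± compound. Compounds tested at 0.1–3.2 μM with a 10 μM max standard; IC50 from AUC of full traces or at 75 s and 135 s.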

EphrinB2-EphB2 [1] = biological target: T2, EphrinB2-EphB2 (Homo sapiens, UniProt P29323); test: Octet tetramerization inhibition, immobilized human EphrinB2 binding to 50 nM soluble human EphB2
T2 construct: soluble human EphB1-His, EphB2-His, and EphB4-His ectodomains; commercially available human EphrinB1-Fc (EB1), EphrinB2-Fc (EB2), and EphrinB3-Fc (EB3) ectodomain proteins; purchased
T2 sequence (P29323 19-543 limits assumed): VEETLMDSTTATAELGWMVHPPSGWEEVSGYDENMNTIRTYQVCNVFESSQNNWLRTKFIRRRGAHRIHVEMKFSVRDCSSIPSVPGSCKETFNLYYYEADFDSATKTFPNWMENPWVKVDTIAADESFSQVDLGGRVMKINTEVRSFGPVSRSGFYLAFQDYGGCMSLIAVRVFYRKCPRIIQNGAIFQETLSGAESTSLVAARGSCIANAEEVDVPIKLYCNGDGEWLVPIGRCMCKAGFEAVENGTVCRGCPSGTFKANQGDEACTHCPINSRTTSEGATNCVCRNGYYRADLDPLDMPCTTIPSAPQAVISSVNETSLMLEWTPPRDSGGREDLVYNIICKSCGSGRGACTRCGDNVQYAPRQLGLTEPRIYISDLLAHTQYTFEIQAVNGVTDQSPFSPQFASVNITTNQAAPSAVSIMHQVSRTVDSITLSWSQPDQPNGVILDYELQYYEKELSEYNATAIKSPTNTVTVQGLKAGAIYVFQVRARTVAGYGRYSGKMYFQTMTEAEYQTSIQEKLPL

EphrinB2-EphB1 = biological target: T3, EphrinB2-EphB1 (Homo sapiens, UniProt P54762); test: Octet 80 sec association/500 sec dissociation, immobilized human EphrinB2-Fc binding to soluble human EphB1-His; conditions: immobilized human EphrinB2, 25 nM soluble human EphB1; for EphB1 Inhibition Percent, Inhibition of Association-Dissociation: at 3.2 μM and 580 seconds; for EphB1 Inhibition Percent, Inhibition of Association ONLY: at 3.2 μM and 80 seconds
T3 construct: soluble human EphB1-His, EphB2-His, and EphB4-His ectodomains; commercially available human EphrinB1-Fc (EB1), EphrinB2-Fc (EB2), and EphrinB3-Fc (EB3) ectodomain proteins; purchased
T3 sequence (P54762 18-540 limits assumed): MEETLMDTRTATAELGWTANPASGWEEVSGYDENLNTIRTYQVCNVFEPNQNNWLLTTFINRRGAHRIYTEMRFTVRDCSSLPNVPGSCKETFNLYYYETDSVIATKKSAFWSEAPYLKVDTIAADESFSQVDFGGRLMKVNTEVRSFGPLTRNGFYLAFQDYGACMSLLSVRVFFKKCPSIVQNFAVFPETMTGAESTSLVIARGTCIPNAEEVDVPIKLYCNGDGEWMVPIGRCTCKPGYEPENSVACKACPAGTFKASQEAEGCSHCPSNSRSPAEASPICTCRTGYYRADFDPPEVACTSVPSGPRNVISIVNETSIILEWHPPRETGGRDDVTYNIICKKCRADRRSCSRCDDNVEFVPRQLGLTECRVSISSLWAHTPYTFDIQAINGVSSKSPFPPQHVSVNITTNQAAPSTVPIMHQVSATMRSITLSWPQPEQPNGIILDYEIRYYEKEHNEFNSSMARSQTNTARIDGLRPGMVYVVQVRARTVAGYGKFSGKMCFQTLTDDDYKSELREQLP
Procedure, shortened: as §1

EphrinB2-EphB2 [2] = biological target: T2, EphrinB2-EphB2; test: Octet 80 sec association/500 sec dissociation, immobilized human EphrinB2-Fc binding to soluble human EphB2-His; conditions: immobilized human EphrinB2, 25 nM soluble human EphB2; for EphB2 Inhibition Percent, Inhibition of Association-Dissociation: at 3.2 μM and 580 seconds; for EphB2 Inhibition Percent, Inhibition of Association ONLY: at 3.2 μM and 80 seconds
Procedure, shortened: as §1

[3] = Absolute AUC/IC50, Table A, EphrinB2-EphB2
[4] = Absolute Association IC50 (300 sec), Table A, EphrinB2-EphB2
[5] = Absolute Dissociation IC50 (450 sec), Table A, EphrinB2-EphB2
[6] = Relative AUC/IC50, Table A, EphrinB2-EphB2, compound 7: association only
[7] = Relative Association IC50 (300 sec), Table A, EphrinB2-EphB2
[8] = Relative Dissociation IC50 (450 sec), Table A, EphrinB2-EphB2
[9] = tetramerization inhibitor IC50 (relative), association step, surmountable tetramer

Compound	EphB4 Inhibition Percent, Inhibition of Association-Dissociation (EphrinB2-EphB4)	disruption of unsurmountable tetramer (EphrinB2-EphB2 [1]; 0.8-3.2 μM, listed as A19-L)	IC50 (EphrinB2-EphB2 [1]; [3]) [nM]	IC50 (EphrinB2-EphB2 [1]; [4]) [nM]	IC50 (EphrinB2-EphB2 [1]; [5]) [nM]	IC50 (EphrinB2-EphB2 [1]; [6]) [nM]	IC50 (EphrinB2-EphB2 [1]; [7]) [nM]	IC50 (EphrinB2-EphB2 [1]; [8]) [nM]	IC50 (EphrinB2-EphB2 [1]; [9]) [nM]	EphB1 Inhibition Percent, Inhibition of Association-Dissociation (EphrinB2-EphB1)	EphB2 Inhibition Percent, Inhibition of Association-Dissociation (EphrinB2-EphB2 [2])	EphB4 Inhibition Percent, Inhibition of Association ONLY (EphrinB2-EphB4)	EphB1 Inhibition Percent, Inhibition of Association ONLY (EphrinB2-EphB1)	EphB2 Inhibition Percent, Inhibition of Association ONLY (EphrinB2-EphB2 [2])
O=C(c1ccc(O)c2ncccc12)N1CCOCC1 [Compound 53, (8-hydroxyquinolin-5-yl)(morpholino)methanone]	16.8% and 12.5%	slight ability to disrupt the unsurmountable tetramer; also recorded: able to inhibit a small amount of the EphrinB2-EphB2 unsurmountable tetramer	2820	3020	2340	1860	1950	1620	~1600	38.7% and 26.3%	65.3% and 40.6%	–	–	–
COc1ccc2[nH]cc(C(=O)N3CCN(c4ccc(Br)cc4)CC3)c2c1 [Compound 65, (4-(4-bromophenyl)piperazin-1-yl)(5-methoxy-1H-indol-3-yl)methanone]	19.0%	–	> 1600	> 1600	> 1600	> 1600	> 1600	> 1600	–	28.6%	46.4%	20.2%	22.2%	5.6%
Cc1ccc2c(CN3CCN(c4ccc(Br)cc4)CC3)ccc(O)c2n1 [Compound 61, 5-((4-(4-bromophenyl)piperazin-1-ium-1-yl)methyl)-8-hydroxy-2-methylquinolin-1-ium chloride]	0*%	–	> 1600	> 1600	> 1600	> 1600	> 1600	> 1600	–	11.3%	0*%	0*%	8.1%	0*%
Oc1ccc(CN2CCN(c3ccc(Br)cc3)CC2)c2cccnc12 [Compound 27, 5-((4-(4-bromophenyl)piperazin-1-ium-1-yl)methyl)-8-hydroxyquinolin-1-ium chloride]	19.5% and 12.6%	–	> 1600	> 1600	> 1600	420	–	–	–	57.1% and 43.8%	60.9% and 43.7%	11.4/11.4%	24.2% and 33.8%	16.8% and 29.2%
O=S1(=O)CCN(Cc2cc(Br)c(O)c3ncccc23)CC1 [Compound 17, 4-((7-bromo-8-hydroxyquinolin-1-ium-5-yl)methyl)thiomorpholin-4-ium 1,1-dioxide chloride]	37.2%	–	1480	1500	1260	810	890	780	–	48.0%	74.5%	18.1%	33.0%	59.5%
Cc1ccc2c(CN3CCOCC3)cc(Br)c(O)c2n1 [Compound 57, 7-bromo-2-methyl-5-(morpholinomethyl)quinolin-8-ol]	8.7%	–	> 3200	> 3200	> 3200	2240	> 3200	> 3200	> 3000	15.3%	20.3%	0*%	0*%	1.4%
